Here are results for one compound from BindingDB's records for doi:10.1016/j.ejmech.2023.115542 (University of Turin, 2023).

A short description of the test: Inhibition of NLRP3-dependent pyroptosis in PMA-differentiated human THP-1 cells assessed as inhibition of LPS/ATP-induced cell death pretreated for 4 hrs with LPS followed by incubation with compound for 1 hr and later treated with ATP for 1.5 hrs by LDH assay.

Take `CCOC(=O)Cn1nc(Cc2ccccc2Cl)oc1=O`: the IC50 worked out at 1550 nM.
